Reference: ChEMBL document CHEMBL1150596, “Gymnasterkoreaynes A-F, cytotoxic polyacetylenes from Gymnaster koraiensis” (2002)
Values after ≈ are worked out from the molar mass of the structure shown.

Tested on: L1210
Test: Cytotoxicity against mouse L1210 cells after 48 hrs by WST-1 assay
Type: functional
Conditions: L1210, 48 h, read-out: ED50 (the source's name)

| Structure (SMILES) | EC50 |
| --- | --- |
| C=CCCCCC/C=C\C(O)C#CC#C/C=C/C (stereo not drawn) | 10.4 µg/mL (≈ 42.9 µM) |
| C=CCCCCC/C=C\C(O)C#CC#CC(O)C=C (stereo not drawn) | 0.12 µg/mL (≈ 0.464 µM) |
| C/C=C/C#CC#C[C@H](O)CCO [GYMNASTERKOREAYNE A] | > 10 µg/mL |
| C=CCCCCC/C=C\[C@H](O)C#CC#CC1OC1C (stereo partly drawn) [GYMNASTERKOREAYNE B] | 3.3 µg/mL (≈ 12.8 µM) |
| C=CCCCCC/C=C\[C@H](O)C#CC#C[C@H](C=C)OC(C)=O [GYMNASTERKOREAYNE C] | 2.1 µg/mL (≈ 6.99 µM) |
| C=CCCCCC/C=C\[C@H](O)C#CC#C/C=C/COC(C)=O [GYMNASTERKOREAYNE D] | 7.7 µg/mL (≈ 25.6 µM) |
| C=CCCCCC/C=C/[C@H](O)C#CC#C[C@@H](O)[C@H](C)O [GYMNASTERKOREAYNE E] | 9.6 µg/mL (≈ 34.7 µM) |
| C=CCCCCC/C=C\[C@H](O)C#CC#C/C=C/CO [GYMNASTERKOREAYNE F] | 3.1 µg/mL (≈ 12 µM) |
